According to the NIST ThermoML archive (doi:10.1021/je9005618):

Assay: refractive index (Na D-line) (dimensionless); xn = mol fraction of the nth substance listed
Conditions: 101 kPa, Liquid

CCn1cc[n+](C)c1.O=S(=O)([O-])C(F)(F)F [1-ethyl-3-methylimidazolium trifluoromethanesulfonate] + CC(C)=O
refractive index
Conditions	288.15 K	298.15 K	308.15 K	318.15 K
x1 = 0.04957	1.37495	1.36994	1.36575	1.36218
x1 = 0.1005	1.38499	1.38033	1.37615	1.37308
x1 = 0.1503	1.39293	1.38854	1.38475	1.38186
x1 = 0.2007	1.39936	1.39527	1.39155	1.38862
x1 = 0.2995	1.40865	1.40492	1.40133	1.39777
x1 = 0.3973	1.41585	1.41237	1.409	1.40574
x1 = 0.5018	1.42117	1.41787	1.41464	1.41148
x1 = 0.5996	1.42541	1.42225	1.41908	1.41604
x1 = 0.6973	1.42854	1.42549	1.4225	1.41953
x1 = 0.7733	1.43087	1.42786	1.4249	1.42199
x1 = 0.8452	1.43253	1.42963	1.42676	1.42392
x1 = 0.8988	1.43368	1.43085	1.42803	1.42518
x1 = 0.9559	1.43487	1.43207	1.42925	1.4265

CCn1cc[n+](C)c1.O=S(=O)([O-])C(F)(F)F [1-ethyl-3-methylimidazolium trifluoromethanesulfonate] + CCOC(C)=O
refractive index
Conditions	288.15 K	298.15 K	308.15 K	318.15 K	328.15 K
x1 = 0.04887	1.38327	1.37802	1.37297	1.3691	1.3631
x1 = 0.1503	1.39622	1.39151	1.3881	1.38476	1.38129
x1 = 0.2004	1.40093	1.39666	1.3944	1.3917	1.38772
x1 = 0.2998	1.40907	1.40499	1.40234	1.39937	1.39558
x1 = 0.399	1.41507	1.41144	1.40854	1.40604	1.4031
x1 = 0.5006	1.42038	1.41682	1.41415	1.41137	1.40906
x1 = 0.5977	1.42469	1.42133	1.4186	1.41549	1.41251
x1 = 0.6974	1.42874	1.42566	1.42254	1.41963	1.41671
x1 = 0.7962	1.43118	1.42823	1.42528	1.42239	1.41954
x1 = 0.8474	1.43242	1.4295	1.42662	1.42376	1.42094
x1 = 0.9011	1.43367	1.43075	1.42792	1.42471	1.42195
x1 = 0.9491	1.43467	1.43182	1.42903	1.42624	1.42352

CCn1cc[n+](C)c1.O=S(=O)([O-])C(F)(F)F [1-ethyl-3-methylimidazolium trifluoromethanesulfonate] + COC(C)=O
refractive index
Conditions	288.15 K	298.15 K	308.15 K	318.15 K
x1 = 0.05083	1.37625	1.37116	1.3671	1.36334
x1 = 0.09991	1.38561	1.38057	1.37793	1.37521
x1 = 0.1515	1.39328	1.38873	1.38548	1.38291
x1 = 0.1998	1.39836	1.39419	1.39098	1.38871
x1 = 0.2997	1.40796	1.40429	1.40087	1.39857
x1 = 0.4003	1.41462	1.4112	1.40804	1.40487
x1 = 0.4958	1.42026	1.41695	1.41367	1.41049
x1 = 0.595	1.42444	1.42123	1.41831	1.41533
x1 = 0.6962	1.42797	1.42488	1.42201	1.41907
x1 = 0.7954	1.43089	1.42794	1.4251	1.42226
x1 = 0.8385	1.43234	1.42944	1.42649	1.42364
x1 = 0.8977	1.43347	1.43061	1.42771	1.42488
x1 = 0.9466	1.43451	1.4317	1.4289	1.42618
